# In patent US8334291B2, “Aliphatically substituted pyrazolopyridines, and the use thereof” (Bayer Intellectual Property GmbH, priority 2008, dated 2012):
# System: rabbit aorta rings contracted with phenylephrine
# Assay: Vasorelaxant effect in vitro
# Parameters: species or system Rabbits
# Details: Oryctolagus cuniculus; concentration reducing height of phenylephrine-induced contraction of rabbit aorta rings by 50%; 0.1% DMSO
# Method: Rabbits are stunned by a blow to the neck and exsanguinated. The aorta is removed, freed from adhering tissue and divided into rings of a width of 1.5 mm. The rings are placed individually under an initial tension in 5 ml organ baths with Krebs-Henseleit solution which is at 37° C., is gassed with carbogen and has the following composition (in each case mM): NaCl: 119; KCl: 4.8; CaCl2×2H2O: 1; MgSO4×7H2O: 1.4; KH2PO4: 1.2; NaHCO3: 25; glucose: 10. The force of contraction is detected with Statham UC2 cells, amplified and digitized via A/D converters (DAS-1802 HC, Keithley Instruments, Munich) and recorded in parallel on chart recorders. Contractions are induced by cumulatively adding increasing concentrations of phenylephrine to the bath. After several control cycles, the substance to be investigated is added in each further run in increasing dosage in each case, and the height of the contraction achieved is compared with the height of the contraction reached in the last preceding one. The concentration necessary to reduce the height of the control value by 50% is calculated from this (IC50 value). The standard application volume is 5 μl, the proportion of DMSO in the bath solution corresponds to 0.1%.
row,Structure (SMILES),IC50 [nM]
1,"Nc1nc(-c2nn(CC3CCCCCC3)c3ncccc23)ncc1-c1ccncc1 [Example 5, 2-[1-(Cycloheptylmethyl)-1H-pyrazolo[3,4-b]pyridin-3-yl]-5-(pyridin-4-yl)pyrimidine-4-amine]",1000
2,"COC(=O)Nc1c(N)nc(-c2nn(CC3CCCCC3)c3ncccc23)nc1N [Example 1, Methyl[4,6-diamino-2-(1-cyclohexylmethyl-1H-pyrazolo[3,4-b]pyridin-3-yl)pyrimidin-5-yl]carbamate]",870
